According to PMC4917206, “Chemical Modification of Influenza CD8+ T-Cell Epitopes Enhances Their Immunogenicity Regardless of Immunodominance” (PLoS ONE, 2016):
Entries after “also recorded” stand apart in the source; their conditions may differ.

What was measured:
HLA-A*0201 = target: T1, HLA-A*0201 (Homo sapiens, UniProt P04439, D140Y/D185E/D98H/E176V/E277Q/G131W/G231S/I119V/I121R/I166T/I218V/L300P/L318F/N151K/N90K/P208A/P217A/Q86G/Q94H/R138H/R169H/T345S); type: binding
T1 construct: Soluble MHC was dissolved in PBS containing 0.5 mg/ml bovine γ-globulin; made in house

[1] = system: CD8+ T cells of HLA-A2+ human donors; type: cell-based; design: key to response compared with WT peptide control, DC model: *: Lower response than WT peptide
[2] = system: splenocytes of WT-vaccinated HLA-A2 tg mice; type: cell-based, mouse; design: key to response compared with WT peptide control, mouse splenocytes: *: Lower response than WT peptide
HLA-A2 transgenic mice = details: mouse, in vivo; for IFN-γ ELISpot response after restimulation with WT peptide / IFN-γ ELISpot response after restimulation with homologous peptide: sc
[3] = system: […]-specific T cell clone; type: cell-based

| Substance | FP binding score, percentage inhibition of tracer peptide binding, 4h (HLA-A*0201) [%] | FP binding score, percentage inhibition of tracer peptide binding, 24h (HLA-A*0201) [%] | DC model: IFN-γ-positive CD8+ T cells, Average [1] | rank by T cell activation, DC model [1] | Mouse splenocytes (ex vivo assay), Average [2] | IFN-γ ELISpot response after restimulation with WT peptide (HLA-A2 transgenic mice) | rank by T cell activation, mouse splenocytes [2] | also measured |
| --- | --- | --- | --- | --- | --- | --- | --- | --- |
| G[2-AOC]LGFVFT[PRG] [G26] | 60 | 54 | 0.45 | Upper 3 | 61 | do not always react to restimulation with WT peptide | – | – |
| NMLSTVLGV [NWT, reference compound] | 53 | 46 | 0.04 | – | 436 | – | – | proportion of vaccinated mice that respond (HLA-A2 transgenic mice): approximately one out of six |
| [3-PYRA]MYSDFHFI [F100] | 79 | 73 | – | – | 104 | higher responses compared to WT-peptide vaccination; also recorded: higher IFN-γ responses than WT peptide-vaccinated mice | Upper 3 | T cell (IFN-γ) response of vaccinated HLA-A2 tg mice, restimulation not specified or both (HLA-A2 transgenic mice): improved T cell responses; also recorded: higher homologous and heterologous responses |
| [4-PYRA]ILGFVFTL [G15] | – | – | 0.17 | Upper 3 | 53 | – | – | T cell clone: percentage of IFN-γ producing T cells, Average [3]: 33.4%; response compared with WT peptide control, DC model [1]: G15 ^* |
| [4-pyra]ILGFVFTL [G10] | – | – | 0.14 | – | 47 | – | – | T cell clone: percentage of IFN-γ producing T cells, Average [3]: 45.4% |
| [SOME][2-AOC]LSTVLGV [N92] | 84 | 81 | 0.04 | – | 380 | did not respond to restimulation | Upper 3 | response compared with WT peptide control, mouse splenocytes [2]: N92 ^*; IFN-γ ELISpot response after restimulation with homologous peptide (HLA-A2 transgenic mice): did not respond to restimulation |
| [am-phg]MLSTVLGV [N46] | 80 | 76 | 0.02 | Lower 3 | 363 | reduced to zero; also recorded: do not always react to restimulation with WT peptide | – | binding score (HLA-A*0201): 81%; number of mice responding to WT peptide restimulation (HLA-A2 transgenic mice): no responders; number of mice responding to homologous peptide restimulation (HLA-A2 transgenic mice): four; IFN-γ ELISpot response after restimulation with homologous peptide (HLA-A2 transgenic mice): increased the responses compared to vaccination with WT peptide |
| [am-phg]MLSTVLG[2-AOC] [N11] | 90 | 88 | 0.03 | Lower 3 | 3 | – | Lower 3 | – |
| [am-phg]MYSDFHFI [F111] | 75 | 72 | 0.08 | – | 86 | higher responses compared to WT-peptide vaccination; also recorded: higher IFN-γ responses than WT peptide-vaccinated mice | – | binding score (HLA-A*0201): 72%; T cell (IFN-γ) response of vaccinated HLA-A2 tg mice, restimulation not specified or both (HLA-A2 transgenic mice): improved T cell responses; also recorded: improved immunogenicity; also recorded: higher homologous and heterologous responses |
| [am-phg]MYSDFHF[2-AOC] [F7] | 91 | 90 | 0.13 | – | 54 | – | Lower 3 | – |
| [am-phg][CpALA]LGFVFTL [G27] | 92 | 91 | 0.1 | – | 35 | – | – | – |
| [am-phg][NVA]YSDFHFI [F193] | 85 | 81 | – | – | – | only showed higher responses than WT peptide at a vaccination dose of 25 nmol | – | T cell (IFN-γ) response of vaccinated HLA-A2 tg mice, restimulation not specified or both (HLA-A2 transgenic mice): lowest homologous and heterologous responses |
| yILGFVFTL [G9] | – | – | 0.11 | – | 20 | – | Lower 3 | T cell clone: percentage of IFN-γ producing T cells, Average [3]: 1.1%; rank by T cell activation, T cell clone [3]: Lower 3 |
